Assays:
Format in all cases: cell-based
[1] = target: T1, rat α-1D (Rattus norvegicus, UniProt P23944); experiment: RSAT assay, α-1D receptor; details: NA = not active (EC50 ≧ 10,000)
T1 construct: expressed in transfected cells; host or cells: NIH-3T3
T1 sequence (P23944 1-561): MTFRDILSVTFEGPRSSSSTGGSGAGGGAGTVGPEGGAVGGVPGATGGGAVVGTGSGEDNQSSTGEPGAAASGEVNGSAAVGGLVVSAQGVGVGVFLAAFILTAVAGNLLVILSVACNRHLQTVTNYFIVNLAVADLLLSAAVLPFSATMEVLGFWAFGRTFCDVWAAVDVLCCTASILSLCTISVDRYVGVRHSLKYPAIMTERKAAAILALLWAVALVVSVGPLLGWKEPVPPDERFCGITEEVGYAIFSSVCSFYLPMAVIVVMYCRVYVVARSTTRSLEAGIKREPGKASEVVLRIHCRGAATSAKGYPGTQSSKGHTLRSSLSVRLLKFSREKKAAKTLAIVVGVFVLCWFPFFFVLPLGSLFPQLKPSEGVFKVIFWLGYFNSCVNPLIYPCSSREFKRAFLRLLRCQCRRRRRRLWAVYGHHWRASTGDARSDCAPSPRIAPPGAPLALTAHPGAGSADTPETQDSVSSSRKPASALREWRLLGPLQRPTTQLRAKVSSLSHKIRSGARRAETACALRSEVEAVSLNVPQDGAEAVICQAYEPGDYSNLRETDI
From the text: (§1) Agonist and antagonist activity, including selectivity and specificity, can be characterized using any of a variety of routine assays, including, without limitation, Receptor Selection and Amplification Technology (RSAT) assays (Messier et al., Pharmacol. Toxicol. 76:308-11 (1995); Conklin et al., Nature 363:274-6 (1993)); cyclic AMP assays (Shimizu et al., J. Neurochem. 16:1609-1619 (1969)); and cytosensor microphysiometry assays (Neve et al., J. Biol. Chem. 267:25748-25753 (1992)). Such assays generally are performed using cells that naturally express only a single α-adrenergic receptor subtype, or using transfected cells expressing a single recombinant α-adrenergic receptor subtype. The adrenergic receptor can be a human receptor or homolog thereof having a similar pharmacology. As disclosed herein, RSAT assays were performed using cells transiently transfected with human α-2A (c10 gene); rat α-2B (RNG gene); human α-2C (c4 gene); bovine α-1A; hamster α-1B; and rat α-1D.
(§2) The RSAT assay measures receptor-mediated loss of contact inhibition resulting in selective proliferation of receptor-containing cells in a mixed population of confluent cells. The increase in cell number is assessed with an appropriate detectable marker gene such as β-galactosidase, if desired, in a high throughput or ultra high throughput assay format. Receptors that activate the G protein, Gq, elicit the proliferative response. α-adrenergic receptors, which normally couple to Gi, activate the RSAT response when coexpressed with a hybrid Gq protein containing a Gi receptor recognition domain, designated Gq/i5.
As an example, an RSAT assay can be performed essentially as follows. […] After washing with phosphate-buffered saline, β-galactosidase activity is determined by adding 200 μl of chromogenic substrate (3.5 mM O-nitrophenyl-β-D-galactopyranoside/0.5% NP-40 in phosphate buffered saline), incubating overnight at 30°, and measuring optical density at 420 nm. […] The EC50 and maximal effect (efficacy) of each drug at each receptor is determined.

[2] = target: T2, bovine α-1A (Bos taurus, UniProt P18130); experiment: RSAT assay, α-1A receptor; details: NA = not active (EC50 ≧ 10,000)
T2 construct: expressed in transfected cells; host or cells: NIH-3T3
T2 sequence (P18130 1-466): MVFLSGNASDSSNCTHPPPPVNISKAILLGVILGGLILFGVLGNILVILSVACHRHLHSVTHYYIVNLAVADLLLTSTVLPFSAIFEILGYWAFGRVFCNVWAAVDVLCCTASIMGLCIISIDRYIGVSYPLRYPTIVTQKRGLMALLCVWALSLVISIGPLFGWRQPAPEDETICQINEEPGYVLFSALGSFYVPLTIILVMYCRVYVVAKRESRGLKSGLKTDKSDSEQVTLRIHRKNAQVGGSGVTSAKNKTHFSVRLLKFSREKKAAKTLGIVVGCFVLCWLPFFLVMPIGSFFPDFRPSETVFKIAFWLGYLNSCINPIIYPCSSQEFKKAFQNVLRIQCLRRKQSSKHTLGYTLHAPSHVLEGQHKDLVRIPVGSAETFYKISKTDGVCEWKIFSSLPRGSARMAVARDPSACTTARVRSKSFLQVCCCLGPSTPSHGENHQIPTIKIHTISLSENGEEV
From the text: as §1, with “The adrenergic receptor can be a human receptor or homolog thereof having a similar pharmacology. As disclosed herein, RSAT assays were performed using cells transiently transfected with human α-2A (c10 gene); rat α-2B (RNG gene); human α-2C (c4 gene); bovine α-1A; hamster α-1B; and rat α-1D.” left out
The RSAT assay measures receptor-mediated loss of contact inhibition resulting in selective proliferation of receptor-containing cells in a mixed population of confluent cells. The increase in cell number is assessed with an appropriate detectable marker gene such as β-galactosidase, if desired, in a high throughput or ultra high throughput assay format. […]
As an example, an RSAT assay can be performed essentially as follows. […] After washing with phosphate-buffered saline, β-galactosidase activity is determined by adding 200 μl of chromogenic substrate (3.5 mM O-nitrophenyl-β-D-galactopyranoside/0.5% NP-40 in phosphate buffered saline), incubating overnight at 30°, and measuring optical density at 420 nm. […]

[3] = target: T3, human α-2C (c4 gene) (Homo sapiens, UniProt P18825); experiment: RSAT assay, α-2C receptor; details: for EC50: NA = not active (EC50 ≧ 10,000); for Emax: in brackets under the RSAT activity, printed without % sign, read-out: % efficacy 2C
T3 construct: expressed in transfected cells; host or cells: NIH-3T3
T3 sequence (P18825 1-462): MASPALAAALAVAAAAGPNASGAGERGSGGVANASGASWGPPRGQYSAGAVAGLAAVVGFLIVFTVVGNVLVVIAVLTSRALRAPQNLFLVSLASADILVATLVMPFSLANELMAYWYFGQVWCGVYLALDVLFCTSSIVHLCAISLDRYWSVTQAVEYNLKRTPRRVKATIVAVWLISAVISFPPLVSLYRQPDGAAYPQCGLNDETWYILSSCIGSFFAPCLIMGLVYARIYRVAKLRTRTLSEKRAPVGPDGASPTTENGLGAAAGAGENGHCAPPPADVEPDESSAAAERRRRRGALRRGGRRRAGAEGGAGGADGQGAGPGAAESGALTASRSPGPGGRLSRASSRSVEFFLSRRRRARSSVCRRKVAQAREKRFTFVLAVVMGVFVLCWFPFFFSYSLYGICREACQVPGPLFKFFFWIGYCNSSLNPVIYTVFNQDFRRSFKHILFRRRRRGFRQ
From the text: as §1, §2
As an example, an RSAT assay can be performed essentially as follows. NIH-3T3 cells are plated at a density of 2×10^6 cells in 15 cm dishes and maintained in Dulbecco's modified Eagle's medium supplemented with 10% calf serum. One day later, cells are cotransfected by calcium phosphate precipitation with mammalian expression plasmids encoding p-SV-β-galactosidase (5-10 μg), receptor (1-2 μg) and G protein (1-2 μg). Carrier DNA, for example 40 μg salmon sperm DNA, also can be included to increase transfection efficiency. Fresh media is added on the following day; one to two days later, cells are harvested and frozen in 50 assay aliquots. Transfected cells are thawed, and 100 μl of cells added to 100 μl aliquots of compound to be tested, with various concentrations assayed in triplicate, for example, in 96-well plates. Incubation continues for 72 to 96 hours at 37°. After washing with phosphate-buffered saline, β-galactosidase activity is determined by adding 200 μl of chromogenic substrate (3.5 mM O-nitrophenyl-β-D-galactopyranoside/0.5% NP-40 in phosphate buffered saline), incubating overnight at 30°, and measuring optical density at 420 nm. The absorbancy is a measure of enzyme activity, which depends on cell number and reflects receptor-mediated cell proliferation. The EC50 and maximal effect (efficacy) of each drug at each receptor is determined.

| EC50 [1] | EC50 [2] | EC50 [3] | Emax [3] | Compound |
| --- | --- | --- | --- | --- |
| > 2000 nM | > 2000 nM | > 2000 nM | – | O=C1c2ccccc2CCC1Cc1c[nH]c(=S)[nH]1 (racemic) [Compound 3] |
| > 2000 nM | – | 202 nM | 0.5% | O=c1[nH]cc(CC2CCc3cc(F)ccc32)[nH]1 (stereo not shown) [Compound 4] |
| > 2000 nM | 1710 nM | 247 nM | 0.3% | S=c1[nH]cc(CC2CC=CC2)[nH]1 [Compound 11] |

— patent publication US7345065B2, “Methods and compositions for alleviating pain” (Allergan, Inc., priority 2002, dated 2008)
